# Data taken from patent US20240124381A1, “Renewable Bio-advantaged plasticizer generated by reductive coupling of lignin-derived aromatics” (Alliance for Sustainable Energy, LLC, priority 2022, published 2024).
# Tests used:
# [1] = Thermostability of plasticized PVC by thermogravimetric analysis (TGA); assay type: physicochemical; conditions: PVC composite with 10 wt % plasticizer; PVC itself 272 ° C.; higher preferred
# Description: (§1) FIG. 5 provides thermal analysis of lignin-derived biaryl plasticizers. From left to right: unplasticized PVC, 10 wt % plasticized PVC with DEHP, and 10 wt % plasticized PVC with lignin-derived biaryl plasticizers.
# (§2) Plasticizer properties of lignin-derived biaryls. The above results provide access to all possible homo- and cross-coupled BPDA derivatives of H, G, and S. These structures provide the basis for testing of these materials as plasticizers for PVC and comparison of their performance relative to the existing petroleum-derived incumbent, di(2-ethylhexyl)phthalate (DEHP). Each of the BPDA methyl esters was subjected to Ti(OBu)4-promoted transesterification with 2-ethylhexanol to afford the corresponding DEH-BPDA derivatives, designated H—H^PL, H-G^PL, H—S^PL, G-G^PL, G-S^PL, and S—S^PL. The thermal properties of these structures were characterized by thermogravimetric analysis (TGA) and differential scanning calorimetry (DSC). DEHP and the DEH-BPDA derivatives were then individually integrated with PVC at 10 wt %, and the composites were analyzed by TGA and DSC to identify their glass transition temperature (Tg) and the temperature at which the polymer degrades with 10% or 50% loss of its original weight (Td10, Td50). The former value reflects the ability of the plasticizer to soften PVC, while the latter values reflect the thermostability of the composite material. […]
# [2] = Glass transition temperature of plasticized PVC by differential scanning calorimetry (DSC); assay type: physicochemical; conditions: PVC composite with 10 wt % plasticizer; unplasticized PVC 83.0 ° C.; lower preferred
# Description: as §1, §2
smiles,measurement,setting,value
"CCCCC(CC)COC(=O)c1ccccc1C(=O)OCC(CC)CCCC (centres unmarked) [DEHP, di(2-ethylhexyl)phthalate]",Td10 (temperature at which the polymer degrades with 10% loss of its original weight),[1],253 °C
same,glass transition temperature (Tg),[2],52.1 °C
